Patent US11497734B2, “Dual inhibitors of TIM-3 and PD-1 pathways” (Aurigene Discovery Technologies Limited, priority 2017, dated 2022)

How the values were obtained:
recombinant human TIM-3 = experiment: Human PBMC IFN-γ release assay in the presence of recombinant TIM-3; assay type: cell-based; settings: 100 nM compound, plate-coated TIM-3 + anti-CD3, anti-CD28, 72 h
Experimental: Vehicle: Milli Q water; RPMI 1640 (GIBCO, Cat #11875); Fetal Bovine Serum [Hyclone, Cat #SH30071.03]; Penicillin (10000 unit/ml)-Streptomycin (10,000 μg/ml) liquid (GIBCO, Cat #15140-122); MEM Sodium Pyruvate solution 100 mM (100×). Liquid (GIBCO, Cat #11360); Nonessential amino acid (GIBCO, Cat #11140); L-Glutamine (GIBCO, Cat #25030); Recombinant human TIM-3 (rhGi24 TIM-3/B7-H5 Fc chimera (R&D systems, cat no: 7126-B7); Anti-h/m Gi24/TIM-3/B7-H5 purified mouse monoclonal IgG2B (R&D systems, cat no: MAB7126); Mouse IgG2B isotype control (R&D Systems cat no: MAB 004); Anti human-CD3 antibody (eBiosciences—16-0039); Anti human-CD28 antibody (eBiosciences—16-0289); Histopaque (density-1.077 gm/ml) (SIGMA 1077); Trypan Blue solution (SIGMA-T8154); Hemacytometer (Bright line-SIGMA Z359629); FACS Buffer containing Phosphate Buffered Saline (PBS) pH 7.2; (HiMedia TS1006) with 0.1% Bovine Serum Albumin (BSA) (SIGMA A7050) and sodium azide (SIGMA 08591); 96-well format ELISA plates (Corning 3599); 96-well format ELISA plates (Corning 3361); BD FACS caliber (E6016); Centrifuge (Eppendorf 5810 R); Human IFN-'γ Duo set ELISA kit (R&D Systems; cat no: DY-285).
Human PBMC IFN-γ Release Assay
96-well cell culture plates were pre-coated with recombinant human TIM-3 (2.5 μg/ml) and anti-human CD3 (2.5 μg/ml), and stored at 4° C. overnight. Anti-human TIM-3 and isotype control antibodies were either coated along with the TIM-3 or incubated for 30 min next day before addition of cells. On the next day, plates were washed with 1× PBS and then incubated with test compounds for 30 min. Isolated PBMC (0.1×10^6 cells/well) and anti-human CD28 antibodies (1 μg/ml) were added to the wells. The culture was further incubated for 72 h at 37° C. with 5% CO2. After 72 h of incubation the cell culture supernatants were collected after brief centrifugation at 200 g×5 min at 4° C. and processed for human IFN-γ measurement by ELISA following manufacturer's protocol (R&D Systems; DY-285).
In brief, 96-well ELISA plates were coated with 100 μl/well of capture antibody in coating buffer and incubated overnight at 4° C. Plates were washed five times with wash buffer and further blocked with 200 μl of 1× assay diluents for 1 hr at RT. Following wash step, 100 μl of cell culture supernatants were added to wells and further incubated for 2 hr at RT. Appropriate standards were also included. After wash step, plate was incubated for one hour with 100 μl/well of detection antibody. The wash step was repeated and the plate was incubated for 30 min with 100 μl/well of Avidin-HRP. The plate was washed four times with wash buffer and subsequently incubated for 15 min with 100 μl/well of substrate solution. 50 μl of stop solution was added to each well and the plate was read at 450 nm using Gen5 ver 2.05. Delta OD values were used for calculating the concentrations. The absorbance values were plotted against the standards and the concentration of IFN-γ was determined using GraphPad Prism software. Each experimental condition was carried out in triplicates.
The percent rescue of IFN-γ release of the selected compounds of present invention are set forth below wherein “A” refers to compounds having more than 70% rescue of IFN-γ release, “B” refers to compounds having rescue of IFN-γ release ranges from 50% to 69.9% and “C” refers to compounds having less than 50% rescue of IFN-γ release.

PD-L1 = biological target: T1, PD-L1 (Mus musculus, UniProt Q9EP73); experiment: Rescue of mouse splenocyte proliferation in the presence of recombinant PD-L1 (CFSE proliferation assay); assay type: cell-based; settings: 100 nM compound; anti-CD3/CD28 stimulated mouse splenocytes + PD-L1; 72 h; read-out: PDL1 (rescue of proliferation @ 100 nM)
T1 construct: Fc (Fc chimera); purchased R&D Systems 1019-B7-100
Experimental: Example 1: Rescue of Mouse Splenocyte Proliferation in the Presence of Recombinant PD-L1/PD-L2
Recombinant mouse PD-L1 (rm-PDL-1, cat no: 1019-B7-100; R&D Systems) were used as the source of PD-L1.
Mouse splenocytes harvested from 6-8 weeks old C57 BL6 mice; RPMI 1640 (GIBCO, Cat #11875); DMEM with high glucose (GIBCO, Cat #D6429); Fetal Bovine Serum [Hyclone, Cat #SH30071.03]; Penicillin (10000 unit/mL)-Streptomycin (10,000 μg/mL) Liquid (GIBCO, Cat #15140-122); MEM Sodium Pyruvate solution 100 mM (100×)), Liquid (GIBCO, Cat #11360); Nonessential amino acid (GIBCO, Cat #11140); L-Glutamine (GIBCO, Cat #25030); Anti-CD3 antibody (eBiosciences—16-0032); Anti-CD28 antibody (eBiosciences—16-0281); ACK lysis buffer (1 mL) (GIBCO, Cat #-A10492); Histopaque (density—1.083 gm/mL) (SIGMA 10831); Trypan blue solution (SIGMA-T8154); 2 mL Norm Ject Luer Lock syringe-(Sigma 2014-12); 40 μm nylon cell strainer (BD FALCON 35230); Hemacytometer (Bright line-SIGMA Z359629); FACS Buffer (PBS/0.1% BSA): Phosphate Buffered Saline (PBS) pH 7.2 (HiMedia TS1006) with 0.1% Bovine Serum Albumin (BSA) (SIGMA A7050) and sodium azide (SIGMA 08591); 5 mM stock solution of CFSE: CFSE stock solution was prepared by diluting lyophilized CFSE with 180 μL of Dimethyl sulfoxide (DMSO C2H6SO, SIGMA-D-5879) and aliquoted in to tubes for further use. Working concentrations were titrated from 10 μM to 1 μM. (eBioscience-650850-85); 0.05% Trypsin and 0.02% EDTA (SIGMA 59417C); 96-well format ELISA plates (Corning CLS3390); BD FACS caliber (E6016); Recombinant mouse B7-H1/PDL1 Fc Chimera, (rm-PD-L1 cat no: 1019-B7-100).
Splenocytes harvested in a 50 mL falcon tube by mashing mouse spleen in a 40 μm cell strainer were further treated with 1 mL ACK lysis buffer for 5 min at room temperature. After washing with 9 mL of RPMI complete media, cells were re-suspended in 3 mL of 1×PBS in a 15 mL tube. 3 mL of Histopaque was added carefully to the bottom of the tube without disturbing overlaying splenocyte suspension. After centrifuging at 800×g for 20 min at room temperature, the opaque layer of splenocytes was collected carefully without disturbing/mixing the layers. Splenocytes were washed twice with cold 1×PBS followed by total cell counting using Trypan Blue exclusion method and used further for cell based assays.
Splenocytes were cultured in RPMI complete media (RPMI+10% fetal bovine serum+1 mM sodium pyruvate+10,000 units/mL penicillin and 10,000 μg/mL streptomycin) and maintained in a CO2 incubator with 5% CO2 at 37° C.
CFSE Proliferation Assay: CFSE is a dye that passively diffuses into cells and hinds to intracellular proteins. 1×10^6 cells/mL of harvested splenocytes were treated with 5 μM of CFSE in pre-warmed 1×PBS/0.1% BSA solution for 10 min at 37° C. Excess CFSE was quenched using 5 volumes of ice-cold culture media to the cells and incubated on ice for 5 min. CFSE labeled splenocytes were further given three washes with ice cold complete RPMI media. CFSE labeled 1×10^5 splenocytes added to wells containing either MDA-MB231 cells (1×10^5 cells cultured in high glucose DMEM medium) or recombinant human PDL-1 (100 ng/mL) and test compounds. Splenocytes were stimulated with anti-mouse CD3 and anti-mouse CD28 antibody (1 μg/mL each), and the culture was further incubated for 72 h at 37° C. with 5% CO2. Cells were harvested and washed thrice with ice cold FACS buffer and % proliferation was analysed by flow cytometry with 488 nm excitation and 521 nm emission filters. Data Compilation, Processing and Inference: […]

T1 sequence (Q9EP73 19-238 limits assumed): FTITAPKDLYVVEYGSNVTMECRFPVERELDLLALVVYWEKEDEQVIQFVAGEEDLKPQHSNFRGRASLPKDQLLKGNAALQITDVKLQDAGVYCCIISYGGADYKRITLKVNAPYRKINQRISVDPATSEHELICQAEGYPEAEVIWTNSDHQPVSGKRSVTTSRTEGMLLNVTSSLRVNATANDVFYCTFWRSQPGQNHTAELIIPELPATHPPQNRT

Structure (SMILES)	activity at 0.1 µM (PD-L1)	TIM-3 (rescue of IFN γ release @ 100 nM) (recombinant human TIM-3)
NCCCC[C@H](N)c1noc([C@H](CC(N)=O)NC(=O)N[C@@H](CO)C(=O)O)n1 [Compound 12]	41%	A (more than 70% rescue of IFN-γ release)
CN[C@@H](CO)c1noc([C@@H](N)CC(N)=O)n1 [Compound 26]	53%	B (rescue of IFN-γ release ranges from 50% to 69.9%)
CSCC[C@H](N)c1noc([C@H](CC(N)=O)NC(=O)N[C@@H](CC(=O)O)C(=O)O)n1 [Compound 10]	53%	C (less than 50% rescue of IFN-γ release)

More lines, main results first:

activity at 0.1 µM (PD-L1)	Structure (SMILES)	TIM-3 (rescue of IFN γ release @ 100 nM) (recombinant human TIM-3)
74%	CC(O)[C@H](NC(=O)N[C@H](CC(N)=O)c1nc([C@@H](N)CO)no1)C(=O)O (stereo partly shown) [Compound 7]	A (more than 70% rescue of IFN-γ release)
68%	CC(O)[C@H](NC(=O)N[C@@H](CC(N)=O)c1nc([C@@H](N)CCC(=O)O)no1)C(=O)O (stereo partly shown) [Compound 1]	B (rescue of IFN-γ release ranges from 50% to 69.9%)
